This is an account of results in ChEMBL document CHEMBL1140841, “Synthesis and biological evaluation of trimethyl-substituted cap analogs” (Bioorg Med Chem Lett, 2008).

Active and inactive are the calls of the source. No cut-off for these calls is given here.

Test [1] has as its system Escherichia phage T7. Put plainly: Effect on Enterobacteria phage T7 RNA polymerase RNA transcription after 2 hrs.
A short description of test [2]: mRNA capping efficiency after 2 hrs by gel shift assay relative to control.
Test [3] relates to HeLa. Put plainly: Translation efficiency in human HeLa cells assessed as luciferase activity. In kind it is functional, cell-based.

On to `C[n+]1cn([C@@H]2O[C@H](COP(=O)(O)OP(=O)([O-])OP(=O)([O-])OC[C@@H]3O[C@H](n4c[n+](C)c5c(=O)[nH]c(N)nc54)[C@@H](O)[C@H]3O)[C@@H](O)[C@H]2O)c2nc(N)[nH]c(=O)c21`, for which the outcome in test [1] and in test [3] was Active. The Activity in test [2] came out at 56%.

For `C[n+]1cn([C@H]2O[C@@H](COP(=O)([O-])OP(=O)(O)OP(=O)(O)OC[C@H]3O[C@@H](n4cnc5c(=O)[nH]c(N)nc54)[C@H](O)[C@@H]3O)[C@H](O)[C@@H]2O)c2nc(N)[nH]c(=O)c21`, the Activity in test [2] stood at 61%.

Consider `CO[C@@H]1[C@H](O)[C@@H](n2c[n+](C)c3c(=O)[nH]c(N)nc32)O[C@H]1COP(=O)([O-])OP(=O)(O)OP(=O)(O)OC[C@H]1O[C@@H](n2cnc3c(=O)[nH]c(N)nc32)[C@H](O)[C@@H]1O`, for which the outcome in test [1] and in test [3] was Active. The Activity in test [2] amounted to 52%.

With `CO[C@@H]1[C@H](O)[C@@H](n2c[n+](C)c3c(=O)[nH]c(N)nc32)O[C@H]1COP(=O)([O-])OP(=O)(O)OP(=O)([O-])OC[C@H]1O[C@@H](n2c[n+](C)c3c(=O)[nH]c(N)nc32)[C@H](O)[C@@H]1O`, the outcome in test [1] and in test [3] was Active. In test [2], the Activity is 51%.
